Laboratory results published in patent US20120214760A1, “TREATMENT OF URINARY TRACT INFECTIONS WITH ANTIBACTERIAL AMINOGLYCOSIDE COMPOUNDS” (Achaogen, Inc., priority 2009, published 2012).
≈ marks a conversion by molar mass, not a printed value. Read-outs that look alike come from different tables or passages of the source.

How the values were obtained:
[1] = system: E. coli ATCC 25922 (AECO001); test: MIC, CLSI broth microdilution; assay type: cell-based; details: Escherichia coli
Procedure, shortened: (§1)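 Test compounds were diluted two-fold at 2× strength in Mueller Hinton Broth, then combined 1:1 with saline-suspended bacteria from an overnight agar colony to reach 5×10^5 CFU/mL. Incubation followed at 35° C. for 20 hours in ambient air, per CLSI reference methods.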

[2] = system: P. aeruginosa ATCC 27853 (APAE001); test: MIC, CLSI broth microdilution; assay type: cell-based; details: for MIC: Pseudomonas aeruginosa
Procedure, shortened: as §1

[3] = ATCC25922, read-out: MIC AECO001, Table 1, AECO001 is ATCC25922
[4] = ATCC27853, read-out: MIC APAE001, Table 1, APAE001 is ATCC27853
[5] = ATCC25922, Table 2, read-out: MIC E. coli
[6] = Table 1, AECO001 is ATCC25922, read-out: MIC AECO001
[7] = ATCC27853, Table 2, read-out: MIC P. aeruginosa

| SMILES | MIC [1, 3] [µg/mL] | MIC [2, 4] [µg/mL] | further results |
| --- | --- | --- | --- |
| CN[C@@H]1[C@@H](O)[C@@H](O[C@@H]2[C@@H](O)[C@H](O[C@H]3OC(CNC[C@H]4C[C@H](N)C4)=CC[C@H]3N)[C@@H](N)C[C@H]2NC(=O)C2(O)CCNC2)OC[C@]1(C)O (stereo partly drawn) [Example 78, 6′-(Methyl-trans-3-amino-cyclobutyl)-1-(3-hydroxy-pyrrolidin-3-yl-acetyl)-sisomicin] | < 1 | 1 to 16 (≈ 1.55 to 24.9 µM) |  |
| CN[C@@H]1[C@@H](O)[C@@H](O[C@@H]2[C@@H](O)[C@H](O[C@H]3OC(CNCC4(CN)CC4)=CC[C@H]3N)[C@@H](N)C[C@H]2NC(=O)C2(O)CCNC2)OC[C@]1(C)O (stereo partly drawn) [Example 79] | 1 to 16 (≈ 1.55 to 24.9 µM) | > 16 |  |
| CN[C@@H]1[C@@H](O)[C@@H](O[C@@H]2[C@@H](O)[C@H](O[C@H]3OC(CNCCCC(O)CN)=CC[C@H]3N)[C@@H](N)C[C@H]2NC(=O)[C@@H](O)CN)OC[C@]1(C)O (stereo partly drawn) [Example 80, 6′-(4-Hydroxy-5-amino-pentyl)-1-(3-amino-2(S)-hydroxy-propionyl)-sisomicin] | < 1 | < 1 |  |
| CN[C@@H]1[C@@H](O)[C@@H](O[C@@H]2[C@@H](O)[C@H](O[C@H]3OC(CNCCNC4CNC4)=CC[C@H]3N)[C@@H](N)C[C@H]2NC(=O)[C@@H](O)CN)OC[C@]1(C)O [Example 81, 6′-(N-(Azetidin-3-yl)-2-amino-ethyl)-1-(3-amino-2(S)-hydroxy-propionyl)-sisomicin] | 1 to 16 (≈ 1.58 to 25.3 µM) | > 16 |  |
| CN[C@@H]1[C@@H](O)[C@@H](O[C@@H]2[C@@H](O)[C@H](O[C@H]3OC(CNCC(O)CN)=CC[C@H]3N)[C@@H](N)C[C@H]2NC(=O)C(O)C2CNC2)OC[C@]1(C)O (stereo partly drawn) [Example 82, 6′-(2-Hydroxy-3-amino-propyl)-1-(2-(azetidin-3-yl)-2-hydroxy-acetyl)-sisomicin] | 1 to 16 (≈ 1.58 to 25.2 µM) | > 16 |  |
| CN[C@@H]1[C@@H](O)[C@@H](O[C@@H]2[C@@H](O)[C@H](O[C@H]3OC(CNCC4(O)CC(N)C4)=CC[C@H]3N)[C@@H](N)C[C@H]2NC(=O)C(O)C2CNC2)OC[C@]1(C)O (stereo partly drawn) [Example 83, 6′-(Methyl-3-amino-1-hydroxy-cyclobutyl)-1-(2-(azetidin-3-yl)-2-hydroxy-acetyl)-sisomicin] | 1 to 16 (≈ 1.52 to 24.3 µM) | > 16 |  |
| CN[C@@H]1[C@@H](O)[C@@H](O[C@@H]2[C@@H](O)[C@H](O[C@H]3OC(CN)=CC[C@H]3NCC3CCNC3)[C@@H](N)C[C@H]2NC(=O)[C@@H](O)CCN)OC[C@]1(C)O (stereo partly drawn) [Example 84, 2′-(Methyl-pyrrolidin-3-yl)-1-(4-amino-2(S)-hydroxy-butyryl)-sisomicin] | < 1 | 1 to 16 (≈ 1.58 to 25.3 µM) |  |
| CN[C@@H]1[C@@H](O)[C@@H](O[C@@H]2[C@@H](O)[C@H](O[C@H]3OC(CN)=CC[C@H]3NCC3CCCN3)[C@@H](N)C[C@H]2NC(=O)[C@@H](O)CCN)OC[C@]1(C)O (stereo partly drawn) [Example 85, 2′-(Methyl-pyrrolidin-2-yl)-1-(4-amino-2(S)-hydroxy-butyryl)-sisomicin] | < 1 | 1 to 16 (≈ 1.58 to 25.3 µM) |  |
| CNCC(=O)N[C@@H]1CC=C(CN)O[C@@H]1O[C@H]1[C@H](O)[C@@H](O[C@H]2OC[C@](C)(O)[C@H](NC)[C@H]2O)[C@H](NC(=O)[C@@H](O)CCN)C[C@@H]1N [Example 86, 2′-(N-Methyl-amino-acetyl)-1-(4-amino-2(S)-hydroxy-butyryl)-sisomicin] | 1 to 16 (≈ 1.61 to 25.8 µM) | 1 to 16 (≈ 1.61 to 25.8 µM) |  |
| CN[C@@H]1[C@@H](O)[C@@H](O[C@@H]2[C@@H](O)[C@H](O[C@H]3OC(CN)=CC[C@H]3NC(=O)CN)[C@@H](N)C[C@H]2NC(=O)[C@@H](O)CCN)OC[C@]1(C)O [Example 87, 2′-(2-Amino-acetyl)-1-(4-amino-2(S)-hydroxy-butyryl)-sisomicin] | 1 to 16 (≈ 1.65 to 26.4 µM) | 1 to 16 (≈ 1.65 to 26.4 µM) |  |
| CN[C@@H]1[C@@H](O)[C@@H](O[C@@H]2[C@@H](O)[C@H](O[C@H]3OC(CN)=CC[C@H]3NC(=O)C(C)N)[C@@H](N)C[C@H]2NC(=O)[C@@H](O)CCN)OC[C@]1(C)O (stereo partly drawn) [Example 88, 2′-(2-Amino-propionyl)-1-(4-amino-2(S)-hydroxy-butyryl)-sisomicin] | 1 to 16 (≈ 1.61 to 25.8 µM) | 1 to 16 (≈ 1.61 to 25.8 µM) |  |
| CN[C@@H]1[C@@H](O)[C@@H](O[C@@H]2[C@@H](O)[C@H](O[C@H]3OC(CN)=CC[C@H]3NC(=O)C(O)CN)[C@@H](N)C[C@H]2NC(=O)[C@@H](O)CCN)OC[C@]1(C)O (stereo partly drawn) [Example 89, 2′-(3-Amino-2-hydroxy-propionyl)-1-(4-amino-2(S)-hydroxy-butyryl)-sisomicin] | < 1 | 1 to 16 (≈ 1.57 to 25.2 µM) |  |
| CN[C@@H]1[C@@H](O)[C@@H](O[C@@H]2[C@@H](O)[C@H](O[C@H]3OC(CN)=CC[C@H]3NC(=O)C3CCCN3)[C@@H](N)C[C@H]2NC(=O)[C@@H](O)CCN)OC[C@]1(C)O (stereo partly drawn) [Example 90] | < 1 | 1 to 16 (≈ 1.55 to 24.8 µM) |  |
| CN[C@@H]1[C@@H](O)[C@@H](O[C@@H]2[C@@H](O)[C@H](O[C@H]3OC(CN)=CC[C@H]3NCCCN)[C@@H](N)C[C@H]2NC(=O)[C@@H](O)CCN)OC[C@]1(C)O [Example 91, 2′-(3-Amino-propyl)-1-(4-amino-2(S)-hydroxy-butyryl)-sisomicin] | < 1 | < 1 |  |
| CN[C@@H]1[C@@H](O)[C@@H](O[C@@H]2[C@@H](O)[C@H](O[C@H]3OC(CN)=CC[C@H]3NC(=O)CC3CNCCO3)[C@@H](N)C[C@H]2NC(=O)[C@@H](O)CCN)OC[C@]1(C)O (stereo partly drawn) [Example 92, 2′-(Morpholin-2-yl-acetyl)-1-(4-amino-2(S)-hydroxy-butyryl)-sisomicin] | < 1 | > 16 |  |
| CN[C@@H]1[C@@H](O)[C@@H](O[C@@H]2[C@@H](O)[C@H](O[C@H]3OC(CN)=CC[C@H]3NS(=O)(=O)CCN)[C@@H](N)C[C@H]2NC(=O)[C@@H](O)CCN)OC[C@]1(C)O [Example 93, 2′-(2-Amino-ethyl-sulfonamide)-1-(4-amino-2(S)-hydroxy-butyryl)-sisomicin] | < 1 | 1 to 16 (≈ 1.52 to 24.4 µM) |  |
| CN[C@@H]1[C@@H](O)[C@@H](O[C@@H]2[C@@H](O)[C@H](O[C@H]3OC(CN)=CC[C@H]3NCC(C)(C)CN(C)C)[C@@H](N)C[C@H]2NC(=O)[C@@H](O)CCN)OC[C@]1(C)O [Example 94, 2′-(N,N-Dimethyl-2,2-dimethyl-3-amino-propyl)-1-(4-amino-2(S)-hydroxy-butyryl)-sisomicin] | 1 to 16 (≈ 1.51 to 24.2 µM) | > 16 |  |
| CN[C@@H]1[C@@H](O)[C@@H](O[C@@H]2[C@@H](O)[C@H](O[C@H]3OC(CN)=CC[C@H]3NC[C@H](C)N)[C@@H](N)C[C@H]2NC(=O)[C@@H](O)CCN)OC[C@]1(C)O [Example 95, 2′-(2(S)-Amino-propyl)-1-(4-amino-2(S)-hydroxy-butyryl)-sisomicin] | < 1 | > 16 |  |
| CN[C@@H]1[C@@H](O)[C@@H](O[C@@H]2[C@@H](O)[C@H](O[C@H]3OC(CN)=CC[C@H]3NC3CNC3)[C@@H](N)C[C@H]2NC(=O)[C@@H](O)CCN)OC[C@]1(C)O [Example 96, 2′-(Azetidin-3-yl)-1-(4-amino-2(S)-hydroxy-butyryl)-sisomicin] |  |  | MIC [1, 5]: < 1 µg/mL; MIC [1, 6]: < 1 µg/mL; MIC [2, 7]: 1 to 16 µg/mL (≈ 1.66 to 26.5 µM) |
| CN[C@@H]1[C@@H](O)[C@@H](O[C@@H]2[C@@H](O)[C@H](O[C@H]3OC(CN)=CC[C@H]3NCC(N)CO)[C@@H](N)C[C@H]2NC(=O)[C@@H](O)CCN)OC[C@]1(C)O (stereo partly drawn) [Example 97, 2′-(2-Amino-propanol)-1-(4-amino-2(S)-hydroxy-butyryl)-sisomicin] | < 1 |  | MIC APAE001 ([2]; Table 1, APAE001 is ATCC27853): B (MIC's of greater than 1.0 μg/mL to 16.0 μg/mL = B) |
| CN[C@@H]1[C@@H](O)[C@@H](O[C@@H]2[C@@H](O)[C@H](O[C@H]3OC(CN)=CC[C@H]3NCCO)[C@@H](N)C[C@H]2NC(=O)[C@@H](O)CCN)OC[C@]1(C)O [Example 98, 2′-(2-Hydroxy-ethyl)-1-(4-amino-2(S)-hydroxy-butyryl)-sisomicin] | 1 to 16 (≈ 1.69 to 27 µM) | 1 to 16 (≈ 1.69 to 27 µM) |  |
| CN[C@@H]1[C@@H](O)[C@@H](O[C@@H]2[C@@H](O)[C@H](O[C@H]3OC(CN)=CC[C@H]3NC(=O)C(N)CCCN)[C@@H](N)C[C@H]2NC(=O)[C@@H](O)CCN)OC[C@]1(C)O (stereo partly drawn) [Example 99, 2′-(2,5-Diamino-pentoyl)-1-(4-amino-2(S)-hydroxy-butyryl)-sisomicin] | 1 to 16 (≈ 1.51 to 24.1 µM) | 1 to 16 (≈ 1.51 to 24.1 µM) |  |
| CN[C@@H]1[C@@H](O)[C@@H](O[C@@H]2[C@@H](O)[C@H](O[C@H]3OC(CN)=CC[C@H]3NCC(O)CN)[C@@H](N)C[C@H]2NC(=O)[C@@H](O)CCN)OC[C@]1(C)O (stereo partly drawn) [Example 101, 2′-(2-Hydroxy-3-amino-propyl)-1-(4-amino-2(S)-hydroxy-butyryl)-sisomicin] | < 1 | 1 to 16 (≈ 1.61 to 25.7 µM) |  |
| CN[C@@H]1[C@@H](O)[C@@H](O[C@@H]2[C@@H](O)[C@H](O[C@H]3OC(CN)=CC[C@H]3NCCCCN)[C@@H](N)C[C@H]2NC(=O)[C@@H](O)CCN)OC[C@]1(C)O [Example 102, 2′-(4-Amino-butyl)-1-(4-amino-2(S)-hydroxy-butyryl)-sisomicin] | < 1 | 1 to 16 (≈ 1.61 to 25.8 µM) |  |
| CN[C@@H]1[C@@H](O)[C@@H](O[C@@H]2[C@@H](O)[C@H](O[C@H]3OC(CN)=CC[C@H]3NC(=N)N)[C@@H](N)C[C@H]2NC(=O)[C@@H](O)CCN)OC[C@]1(C)O [Example 103, 2′-Guanidinium-1-(4-amino-2(S)-hydroxy-butyryl)-sisomicin] |  |  | MIC [1, 5]: < 1 µg/mL; MIC [1, 6]: < 1 µg/mL; MIC [2, 7]: < 1 µg/mL |
| CN[C@@H]1[C@@H](O)[C@@H](O[C@@H]2[C@@H](O)[C@H](O[C@H]3OC(CN)=CC[C@H]3NC[C@H]3C[C@H](N)C3)[C@@H](N)C[C@H]2NC(=O)[C@@H](O)CCN)OC[C@]1(C)O [Example 104, 2′-(Methyl-trans-3-amino-cyclobutyl)-1-(4-amino-2(S)-hydroxy-butyryl)-sisomicin] | < 1 | 1 to 16 (≈ 1.58 to 25.3 µM) |  |
